From patent US20190336496A1, “SELECTIVE BCL-2 INHIBITORS IN COMBINATION WITH AN ANTI-PD-1 OR AN ANTI-PD-L1 ANTIBODY FOR THE TREATMENT OF CANCERS” (AbbVie Inc., priority 2018, published 2019)

Assays:
Assay in all cases: Venetoclax cell killing (CellTiter-Glo)
Assay type in all cases: cell-based
NCI-H69 = settings: Homo sapiens, NCI-H69, 24 h; Lung; 10% FBS; 1 day
Description: (§1) Solid tumor cell lines were obtained from American Type Culture Collection (ATCC, Manassas, Va.) or the National Cancer Institute (NCI) and cultured in humidified incubators at 37° C. (5% CO2) in appropriate media (specified by supplier) supplemented with 10% fetal bovine serum (FBS) or 10% human serum (HS). 24 hours after plating into 96-well or 384-well tissue culture plates, venetoclax was added to cells at various concentrations (typically 0.010 to 10 μM in half-log increments) to perform concentration-response assessments of cell killing. After 1 to 5 days of culture in the presence of venetoclax, cell viability was assessed using CellTiter-Glo® reagent (Promega). IC50 values were determined by non-linear regression analysis of the concentration response data (Table 5 and Table 6).

NCI-H526 = settings: Homo sapiens, NCI-H526, 24 h; Lung; 10% FBS; 1 day
Description: as §1

A431 = settings: Homo sapiens, A-431, 120 h; Epidermoid carcinoma (skin); 10% FBS; 5 days
Description: as §1

DLD-1 = settings: Homo sapiens, DLD-1, 120 h; Colorectal; 10% FBS; 5 days
Description: as §1

NCI-H1299 = settings: Homo sapiens, NCI-H1299, 120 h; Lung; 10% FBS; 5 days
Description: as §1

Hs 695T = settings: Homo sapiens, 120 h, Melanoma, 10% FBS, 5 days
Description: as §1

NCI-H1417 = settings: Homo sapiens, NCI-H1417, 48 h; Lung; 10% HS; 2 days
Description: as §1

MDA-MB-468 = settings: Homo sapiens, MDA-MB-468, 48 h; Breast Cancer; 10% FBS; 2 days
Description: as §1

NCI-H510A = settings: Homo sapiens, 24 h, Lung, 10% FBS, 1 day
Description: as §1

NCI-H524 = settings: Homo sapiens, NCI-H524, 24 h; Lung; 10% FBS; 1 day
Description: as §1

NCI-H460 = settings: Homo sapiens, NCI-H460, 72 h; Lung; 10% FBS; 3 days
Description: as §1

SKBR3 = settings: Homo sapiens, SK-BR-3, 72 h; Breast Cancer; 10% FBS; 3 days
Description: as §1

NCI-H1963 = settings: Homo sapiens, NCI-H1963, 24 h; Lung; 10% FBS; 1 day
Description: as §1

WM-115 = settings: Homo sapiens, WM-115, 120 h; Melanoma; 10% FBS; 5 days
Description: as §1

LS411N = settings: Homo sapiens, LS-411N, 120 h; Colorectal; 10% FBS; 5 days
Description: as §1

FaDu = settings: Homo sapiens, 120 h, Hypopharyngeal, 10% FBS, 5 days
Description: as §1

Calu-1 = settings: Homo sapiens, Calu-1, 72 h; Lung; 10% FBS; 3 days
Description: as §1

COLO-320DM = settings: Homo sapiens, 120 h, Colorectal, 10% FBS, 5 days
Description: as §1

SW620 = settings: Homo sapiens, SW-620, 120 h; Colorectal; 10% FBS; 5 days
Description: as §1

LoVo = settings: Homo sapiens, 120 h, Colorectal, 10% FBS, 5 days
Description: as §1

NCI-H441 = settings: Homo sapiens, NCI-H441, 72 h; Lung; 10% FBS; 3 days
Description: as §1

COLO-668 = settings: Homo sapiens, COLO-668, 120 h; Colorectal; 10% FBS; 5 days
Description: as §1

NCI-H1975 = settings: Homo sapiens, NCI-H1975, 72 h; Lung; 10% FBS; 3 days
Description: as §1

22Rv1 = settings: Homo sapiens, 22Rv1, 48 h; Prostate; 10% FBS; 2 days
Description: as §1

NCI-H661 = settings: Homo sapiens, NCI-H661, 72 h; Lung; 10% FBS; 3 days
Description: as §1

NCI-H358 = settings: Homo sapiens, NCI-H358, 72 h; Lung; 10% FBS; 3 days
Description: as §1

RKO = settings: Homo sapiens, 120 h, Colorectal, 10% FBS, 5 days
Description: as §1

SW1463 = settings: Homo sapiens, SW1463, 120 h; Colorectal; 10% FBS; 5 days
Description: as §1

HCT-116 = settings: Homo sapiens, HCT-116, 120 h; Colorectal; 10% FBS; 5 days
Description: as §1

HCC827 = settings: Homo sapiens, HCC827, 72 h; Lung; 10% FBS; 3 days
Description: as §1

NCI-H1048 = settings: Homo sapiens, NCI-H1048, 72 h; Lung; 10% FBS; 3 days
Description: as §1

In the case of `CC1(C)CCC(CN2CCN(c3ccc(C(=O)NS(=O)(=O)c4ccc(NCC5CCOCC5)c([N+](=O)[O-])c4)c(Oc4cnc5[nH]ccc5c4)c3)CC2)=C(c2ccc(Cl)cc2)C1` [Compound (I), venetoclax], the IC50 (NCI-H69) is reported as > 10 µM, the IC50 (NCI-H526) is reported as > 10 µM and the IC50 (A431) is reported as 4.35 µM. The IC50 (DLD-1) was > 10 µM, the IC50 (NCI-H1299) was > 10 µM and the IC50 (Hs 695T) was > 10 µM. For the same molecule, the IC50 (NCI-H1417) was > 5 µM, the IC50 (MDA-MB-468) was > 10 µM and the IC50 (NCI-H510A) was 1.97 µM. The IC50 (NCI-H524) was > 10 µM, the IC50 (NCI-H460) was > 10 µM and the IC50 (SKBR3) was 4.42 µM. It also gave an IC50 (NCI-H1963) of 4.59 µM, an IC50 (WM-115) of 4.96 µM and an IC50 (LS411N) of 5.1 µM. For the same molecule, the IC50 (FaDu) was > 10 µM, the IC50 (Calu-1) was > 10 µM and the IC50 (COLO-320DM) was > 10 µM. The IC50 (SW620) was > 10 µM, the IC50 (LoVo) was > 10 µM and the IC50 (NCI-H441) was > 10 µM. For the same molecule, the IC50 (COLO-668) was > 10 µM, the IC50 (NCI-H1975) was > 10 µM and the IC50 (22Rv1) was > 10 µM. The IC50 (NCI-H661) was > 10 µM, the IC50 (NCI-H358) was > 10 µM and the IC50 (RKO) was > 10 µM. For the same molecule, the IC50 (SW1463) was > 10 µM, the IC50 (HCT-116) was > 10 µM and the IC50 (HCC827) was > 10 µM. For the same molecule, the IC50 (NCI-H1048) was > 10 µM.
